Assay [1] relates to bone formation. The experiment in a line: Bone formation bioassays, assay not specified (anabolic potential). An excerpt:
(§1) The following bioassays were used for bone formation analysis • BMP-2 gene reporter assay (high throughput screen) • Alkaline phosphatase in osteoblast cells • Calvaria organ culture in vitro, bone formation • Injection into calvaria in vivo, bone formation.
For example, extracts were screened for bone formation by a high throughput gene reporter assay for BMP-2 followed by an alkaline phosphatase assay and an organ culture model and finally by injection into mice calvaria in vivo. Subfractions of positive extracts and/or pure compounds were further tested for activity.
(§2) The rosemary plant extracts and the pure compounds were tested in an osteoblast/osteoclast co-culture system.

For assay [2], the system named is osteoblast cells. Nature of the assay: Alkaline phosphatase assay in osteoblast cells. The format is cell-based. As for the experimental part:
as §1
(§3) The screening for bone formation was carried out in several stages: • (i) BMP-2 high throughput gene reporter assay of non-hydrolyzed MeOH/H2O extracts (1a) and corresponding glycosidase hydrolyzed extract in ethyl acetate (1b). […] Extracts were assessed in a 4-day in vitro neonatal murine calvarial assay. Bones were incubated with the extracts for the entire 4 days. • (vi) Resorption activity monitored by measuring the amount of type I collagen released in the media as osteoclasts digest bone.

The test system of assay [3] is BMP-2. Nature of the assay: BMP-2 high throughput gene reporter assay. It counts as cell-based.
Text: as §1
For example, extracts were screened for bone formation by a high throughput gene reporter assay for BMP-2 followed by an alkaline phosphatase assay and an organ culture model and finally by injection into mice calvaria in vivo. Subfractions of positive extracts and/or pure compounds were further tested for activity. Analysis of the chemical composition of one active extract was performed in order to determine the active compounds.
as §3
(A reporter such as luciferase makes a cellular process visible.)

Assay [4] relates to Osteopontin (OPN) mRNA in hPOBtert cells. The experiment in a line: Osteopontin (OPN) mRNA induction by real-time PCR. The format is cell-based, human. Particulars: 48 h, normalised to β-actin. As for the experimental part: Cell culture—HPOBTert osteoblasts were seeded on collagen-coated plates and grown in MEM Eagle α Modification medium supplemented with 10% fetal bovine serum, 1% L-glutamine and penicillin/streptomycin, 1 mM β-glycerolphosphate and 50 μg/ml ascorbic acid in a humidified atmosphere of 5% CO2, and 95% air at 37° C. When carnosol and inhibitors were added, an equivalent amount of Me2SO was used as a vehicle control.
Analysis of mRNA levels by Real-Time PCR—Total cellular RNA was extracted using the NucleoSpin RNA II kit (Macherey-Nagel, Switzerland). Equal amounts (1 μg) of RNA from the different treatments were reverse-transcribed using the First Strand cDNA Synthesis kit for RT-PCR (Roche, Mannheim, Germany). For each sample, 2 μl 10× reaction buffer, 4 μl 25 mM MgCl2, 2 μl nucleotide mix, 2 μl random primers, 1 μl RNAse inhibitor and 0.4 μl AMV reverse transcriptase from the kit were added to the sample. The reverse transcriptase was performed at the following thermal cycling conditions (25° C. for 10 min, 42° C. for 60 min, and 75° C. for 5 min) using the PTC-100™ […]).
Real-time Quantitative PCR—Quantitative PCR was performed in 25 μl in triplicates. This consisted of 12.5 μl of Taqman 2× Universal PCR Master Mix, 1.25 μl Assay-on-Demand primers and probes (Applied Biosystems, USA) and 6.25 μl RNAse free water. […]
Background: Quantitative PCR measures a nucleic acid by following its amplification.

Assay [5] deals with NQO1 in hPOBtert cells. The experiment in a line: NQO1 induction, immunoblot. The format is cell-based, human. As for the experimental part:
Preparation of cytoplasmic extracts—hPOBtert cells were washed two times with cold phosphate-buffered saline and harvested with lysis buffer (1% Triton X-100, 20 mM Tris/HCL pH 8, 137 mM Nacl, 10% Glycerol, 2 mM EDTA pH 8, and freshly added proteinase inhibitors: 1 mM phenylmethylsulfonylfluoride, 0.15 U/ml Aprotinin, 10 μg/ml Leupeptide and 10 μg/ml Pepstatin). The samples were centrifuged at 13000 rpm, 4° C. for 5 min and the supernatant transferred to a fresh tube. The protein concentration was determined using the BioRad protein assay. Approximately 50 μg of each sample were mixed with a suitable volume of sample buffer, denatured for 5 min at 95° C. together with 5 μl protein standard, chilled on ice, and loaded on a 10% ready gel, and submitted to immunoblot analysis using anti-NQO1 antibodies.
Immunoblotting—50 μg of protein cell lysate were resolved by SDS-PAGE. After electrophoresis, proteins were transferred to a PVDF membrane (Invitrogen) according to the manufacturer's protocol. Membranes probed for OPN and NQO1 were blocked and probed in 5% milk in Tris-buffered saline/Tween (20 mM Tris base, pH 7.6, 137 mM, 0.1% Tween 20). The blots were visualised by chemiluminescence development, Western blotting detection system (Amersham Biosciences).
Antibodies—The NQO1 (sc-16464)-specific antibodies were purchased from Santa Cruz Biotechnologies Inc (Santa Cruz, Calif.). […]
In general terms: Immunoblotting shows a protein as a band on a membrane.

The test system of assay [6] is OPG/RANKL. The experiment in a line: Osteoblast/osteoclast co-culture system, OPG/RANKL regulation. The format is cell-based. As for the experimental part:
as §2

For assay [7], the system named is neonatal murine calvarial bones. Nature of the assay: Calvaria organ culture in vitro, bone formation. It counts as cell-based. The settings on record: phenolics tested at 1-10 μM. As for the experimental part: as §1, §3

These results are taken from US8299034B2, “Nutritional compositions for promotion of bone growth and maintenance of bone health comprising extracts of for example rosemary or caraway” (Nestec S.A., priority 2008, dated 2012).

Structures are written as SMILES.

Regarding `COc1c(OC2OC(COC(=O)C=Cc3ccc(O)cc3)C(O)C(O)C2O)cc2oc(-c3ccc(O)c(O)c3)cc(=O)c2c1O` (stereo not shown) [6″-Coumaroylnepitrin], in assay [1], the anabolic potential entry is “anabolic potential”.
Same read-out and setting: in the case of `COc1cc(C=CC(=O)OCC2OC(Oc3cc4oc(-c5ccc(O)c(O)c5)cc(=O)c4c(O)c3OC)C(O)C(O)C2O)ccc1O` (stereo not shown) [6″-Feruloylnepitrin] it was “anabolic potential”.
Take `COc1ccc(-c2cc(=O)c3c(O)cc(O)cc3o2)cc1` [Acacetin]: the ALP activity induction in assay [2] (5-10 μM) is recorded as 2X. For the same compound, the BMP-2 induction in assay [3] (5-10 μM) was 5.5X.
As for `CC(C)c1cc2c(c(O)c1O)[C@@]13CCCC(C)(C)[C@@H]1C[C@@H]2OC3=O` [Carnosol], the ALP activity induction in assay [2] (2.5-10 μM) was found to be 2X. Moreover, the “OPN mRNA levels” value in assay [4] is on record as “induce OPN expression dose-dependently”. Further, the NQO1 expression entry in assay [5] is “induces the expression of the phase II enzyme NQO1”. Also, the anabolic potential entry in assay [1] was “anabolic potential”. The “regulation of OPG/RANKL” value in assay [6] is recorded as “activity for regulation of the key cytokines controlling bone remodeling”. Also, in assay [7], the “Bone formation in organ culture” value is reported as “Yes”. Besides, the BMP-2 induction in assay [3] (2.5-10 μM) is listed as 4.5-7X.
Consider `COc1c(O)cc2oc(-c3ccc(O)c(O)c3)cc(=O)c2c1O` [Eupafolin], for which the results for the ALP activity induction in assay [2] (5 μM) and in assay [2] (10 μM) were 2 X and 4 X, respectively. Also, the anabolic potential entry in assay [1] was “anabolic potential”. For the same compound, the “regulation of OPG/RANKL” value in assay [6] was “activity for regulation of the key cytokines controlling bone remodeling”. For the same compound, the “Bone formation in organ culture” value in assay [7] is reported as “Yes”. Besides, the BMP-2 induction in assay [3] (2.5-10 μM) is given as 3-8X.
As for `COc1cc(O)c2c(=O)cc(-c3ccc(O)cc3)oc2c1` [Genkwanin], in assay [2] (10 μM), the ALP activity induction was 1.5X. The compound also had a BMP-2 induction in assay [3] (5 μM) of 4X.
As for `O=c1c(O)c(-c2ccc(O)cc2)oc2cc(O)cc(O)c12` [Kaempferol], the ALP activity induction in assay [2] (2.5-10 μM) is 2-4X. Also, the anabolic potential result in assay [1] is “anabolic potential”. Also, the “Bone formation in organ culture” value in assay [7] was “Yes”. Further, the BMP-2 induction in assay [3] (1-10 μM) was determined as 2.5X.
As for `O=c1cc(-c2ccc(O)cc2)oc2cc(O)c(O)c(O)c12` [Scutellarein], the ALP activity induction in assay [2] (10 μM) was determined as 2X. For the same compound, the BMP-2 induction in assay [3] (5, 10 μM) is reported as 3-4X.
